“And” between values parts separate entries of the source, which are not always exact repeats. Identical values can stand only once. Like-named read-outs stand apart in the source and are kept apart here. Positions of bridges follow the written chain, without caps; N, C: chain ends. Non-standard residues stand in square brackets, D forms with d. Residues, ends and D or L forms follow the SMILES beside them. R8 = C=CCCCCCC[C@@](C)(N)C(=O)O; R5 = C=CCCC[C@@](C)(N)C(=O)O; S5 = C=CCCC[C@](C)(N)C(=O)O

Consider 11 molecules from patent US20260265304A1, “PEPTIDE INHIBITORS OF FOCAL ADHESION KINASE ACTIVITY AND USES THEREOF” (Arizona Board of Regents on Behalf of the University of …, priority 2019, published 2026).

For assay [1], the target named is T1, FAK FAT domain (biotinylated Avitag-FAT protein) (Homo sapiens, UniProt Q05397).
T1 construct: biotinylated Avitag-FAT protein was diluted in running buffer
T1 sequence (Q05397 914-1045 limits assumed): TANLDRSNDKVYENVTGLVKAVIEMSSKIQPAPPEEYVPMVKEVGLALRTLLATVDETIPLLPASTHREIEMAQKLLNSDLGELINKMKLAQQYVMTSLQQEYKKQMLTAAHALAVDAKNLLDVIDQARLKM
Description: Surface plasmon resonance (SPR) binding to immobilised FAT protein. As to conditions: for Kd: FAT protein immobilised, peptide 200 μM-0.01 μM, 1:1 binding model; for binding and inhibitory properties (SPR/FP) in words, compared to 1907: SAR discussion of SPR and FP data. How it is done: SPR binding studies were performed on a ForteBio Pioneer FE SPR system. In brief, a SADH Streptavidin in Dextran Hydrogel biosensor (ForteBio) was docked onto the flow cell and preconditioned with two injections of 10 mM NaOH, 1 M NaCl for 1 min at 50 μL/min. […] Empty channel 2 served as the reference control. After achieving a stable baseline, a concentration series (200 μM-0.01 μM) of peptide was prepared in final running buffer (100 mM Tris-HCl, 200 mM NaCl, 0.05% Tween-20, 5% DMSO) and injected using the OneStep gradient injection method at a flow rate of 75 μL/min. […] Raw SPR data were appropriately processed in Qdat software (ForteBio) by normalizing the baseline prior to injection, aligning the channels, subtraction of the reference channel, and blank subtraction. Kinetic data were fitted to a pseudo-first order 1:1 interaction binding model using to calculate KD. In addition, a steady-state model and Req data points were used to validate the binding affinity. Visual inspection of the SPR sensograms was performed to verify appropriate model fitting, lack of mass transport effects, return to baseline, and lack of irregular kinetics.
(In SPR one partner is held on a chip, and binding of the other changes the refractive index at the surface.)

Assay [2] deals with T2, FAK FAT domain (paxillin-FAT binding) (Homo sapiens, UniProt Q05397).
T2 construct: FP Buffer containing 20 μM FAT and 0.1 μM TAMRA-LD2
T2 sequence (Q05397 914-1045 limits assumed): T1 sequence (Q05397 914-1045 limits assumed)
Description: Competition fluorescence polarization (FP) assay, inhibition of TAMRA-LD2 binding to FAT. How it is done: The FP assay buffer used was 20 mM Tris, 200 mM NaCl, 0.05% β-me, 0.1% Triton X-100, 5% glycerol, and 1× Halt protease inhibitor cocktail. […] Bodipy TMR FP optical module (2100-4100) was used as the mirror.
Wells with no FAT were used as a baseline value which was subtracted from the raw values to produce ΔmP values. The plate was read at every hour for four hours to test for time differences in IC50. The titration data was processed through GraphPad Prism to produce a dose response curve and a calculated IC50 with standard error (SE). A four-parameter dose-response inhibition model was utilized and the bottom fit was constrained to the lower plateau of the curve. Ki was determined from the following calculation:
P0 is the concentration of free protein and KD is calculated from the saturation curve. 150 is calculated by the following equation:
where PT is the total protein concentration, LT is the total labeled-ligand concentration, P0 is the positive root of P0^2+(KD+LT)*P0−PT, PL0=P−P0, PL50=PL0/2, L0=LT-PL0, and L50=LT-PL50.
A general note: Fluorescence polarisation rises when a labelled molecule tumbles more slowly, as on binding a larger partner.

On to `CC(=O)N[C@@H](CO)C(=O)N[C@@H](CC(C)C)C(=O)NCC(=O)N[C@@H](CO)C(=O)N[C@@H](CC(N)=O)C(=O)N[C@@H](CC(C)C)C(=O)N[C@]1(C)CCCCCCC=CCCC[C@@](C)(C(=O)N[C@@H](CCC(=O)O)C(=O)N[C@@H](CC(C)C)C(=O)N[C@@H](CC(N)=O)C(=O)N[C@@H](C)C(=O)N[C@H](C(=O)N[C@@H](CCC(N)=O)C(=O)N[C@@H](Cc2c[nH]cn2)C(N)=O)C(C)C)NC(=O)[C@H](CC(C)C)NC(=O)[C@H](CC(C)C)NC(=O)[C@H](CCCNC(=N)N)NC(=O)[C@H](CC(=O)O)NC(=O)[C@H](CC(C)C)NC(=O)[C@H](CCC(=O)O)NC1=O` [Peptide 1920, Ac-SLGSNLR8ELDRLLS5ELNAVQH-NH2] (Ac-SLGSNL[R8]ELDRLL[S5]ELNAVQH-NH2; staple 7-14), for which, in assay [1] (read-out: SPR KD), the Kd (in general, a measure of binding affinity in units of concentration) was 7 µM and 6.95 µM. For the same molecule, the Ki (as a rule, a dissociation constant, usually derived from enzyme kinetics or from competition with a known ligand) in assay [2] (read-out: FP Ki) was determined as 25 µM.

`CC(=O)N[C@@H](CC(N)=O)C(=O)N[C@@H](CC(C)C)C(=O)N[C@@H](CO)C(=O)N[C@@H](CCC(=O)O)C(=O)N[C@@H](CC(C)C)C(=O)N[C@@H](CC(=O)O)C(=O)N[C@@H](CCCNC(=N)N)C(=O)N[C@@H](CC(C)C)C(=O)N[C@]1(C)CCCC=CCCC[C@@](C)(C(=O)N[C@@H](CC(N)=O)C(N)=O)NC(=O)[C@H](CCC(=O)O)NC(=O)[C@H](CC(C)C)NC1=O` [Peptide 1921] (Ac-NLSELDRL[R5]LE[S5]N-NH2; staple 9-12): the “binding and inhibitory properties (SPR/FP) in words, compared to 1907” value in assay [1] is “did not show much activity compared to 1907”. Moreover, the Ki in assay [2] (read-out: FP Ki) amounted to 492 µM.

With `CC(=O)N[C@@H](CC(N)=O)C(=O)N[C@@H](CC(C)C)C(=O)N[C@@H](CO)C(=O)N[C@@H](CCC(=O)O)C(=O)N[C@]1(C)CCCCCCC=CCCC[C@@](C)(C(=O)N[C@@H](CC(N)=O)C(N)=O)NC(=O)[C@H](CCC(=O)O)NC(=O)[C@H](CC(C)C)NC(=O)[C@H](C)NC(=O)[C@H](C)NC(=O)[C@H](CCCNC(=N)N)NC(=O)[C@H](CC(=O)O)NC1=O` [Peptide 1925, Ac-NLSER8DRAALES5N-NH2] (Ac-NLSE[R8]DRAALE[S5]N-NH2; staple 5-12), the Kd in assay [1] (read-out: SPR KD) was more than 200 µM. Further, the Ki in assay [2] (read-out: FP Ki) was determined as 492 µM.

On to `CSCC[C@@H]1NC(=O)[C@H](Cc2ccccc2)NC(=O)[C@H](CCCNC(=N)N)NC(=O)[C@H](CC(C)C)NC(=O)[C@H](CCCNC(=N)N)NC(=O)[C@H](C)NC(=O)[C@](C)(NC(=O)[C@H](CCCNC(=N)N)NC(=O)[C@H](CCCNC(=N)N)NC(C)=O)CCCCCCC=CCCC[C@@](C)(C(=O)N[C@@H](CCC(N)=O)C(=O)N[C@@H](Cc2ccccc2)C(=O)N[C@@H](Cc2ccc(O)cc2)C(N)=O)NC1=O` [Peptide 1929, Ac-RRR8ARLRFMS5QFY-NH2] (Ac-RR[R8]ARLRFM[S5]QFY-NH2; staple 3-10), for which the Kd in assay [1] (read-out: SPR KD) was 77.6 µM. Besides, the “binding and inhibitory properties (SPR/FP) in words, compared to 1907” value in assay [1] is listed as “did not have comparable activity to LD2-derived 1907”. Also, the Ki in assay [2] (read-out: FP Ki) was more than 1250 µM.

In the case of `CC(=O)N[C@@H](CC(N)=O)C(=O)N[C@@H](CC(C)C)C(=O)N[C@@H](CCCNC(=N)N)C(=O)N[C@@H](CCC(=O)O)C(=O)N[C@@]1(C)CCCC=CCCC[C@@](C)(C(=O)N[C@@H](CCCNC(=N)N)C(=O)N[C@@H](CCC(=O)O)C(=O)N[C@@H](CC(C)C)C(=O)N[C@@H](CC(N)=O)C(N)=O)NC(=O)[C@H](CC(C)C)NC(=O)[C@H](CCCNC(=N)N)NC(=O)[C@H](CC(=O)O)NC1=O` [Peptide 1931, Ac-NLRES5DRLS5RELN-NH2] (Ac-NLRE[S5]DRL[S5]RELN-NH2; staple 5-9), in assay [1] (read-out: SPR KD), the Kd is 13.7 µM. In addition, in assay [2] (read-out: FP Ki), the Ki amounted to 14.5 µM.

Take `CC(=O)N[C@@H](CC(N)=O)C(=O)N[C@@H](CC(C)C)C(=O)N[C@]1(C)CCCCCCC=CCCC[C@@](C)(C(=O)N[C@@H](CCC(=O)O)C(=O)N[C@@H](Cc2c[nH]c3ccccc23)C(=O)N[C@@H](CC(N)=O)C(N)=O)NC(=O)[C@H](CC(C)C)NC(=O)[C@H](CC(C)C)NC(=O)[C@H](CCCNC(=N)N)NC(=O)[C@H](CC(=O)O)NC(=O)[C@H](Cc2c[nH]c3ccccc23)NC(=O)[C@H](CCC(=O)O)NC1=O` [Peptide 1933, Ac-NLR8EWDRLLS5EWN-NH2] (Ac-NL[R8]EWDRLL[S5]EWN-NH2; staple 3-10): in assay [1] (read-out: SPR KD), the Kd was determined as 155 µM. Moreover, the “binding and inhibitory properties (SPR/FP) in words, compared to 1907” value in assay [1] was “worse binding and inhibitory properties compared to 1907”. Besides, the Ki in assay [2] (read-out: FP Ki) amounted to 281 µM.

As to `CC(=O)N[C@@H](CC(N)=O)C(=O)N[C@@H](CC(C)C)C(=O)N[C@]1(C)CCCCCCC=CCCC[C@@](C)(C(=O)N[C@@H](CCC(=O)O)C(=O)N[C@@H](CC(C)C)C(=O)N[C@@H](CC(N)=O)C(N)=O)NC(=O)[C@H](Cc2c[nH]c3ccccc23)NC(=O)[C@H](CC(C)C)NC(=O)[C@H](CCCNC(=N)N)NC(=O)[C@H](CC(=O)O)NC(=O)[C@H](CC(C)C)NC(=O)[C@H](CCC(=O)O)NC1=O` [Peptide 2007, Ac-NLR8ELDRLWS5ELN-NH2] (Ac-NL[R8]ELDRLW[S5]ELN-NH2; staple 3-10), the Kd in assay [1] (read-out: SPR KD) was found to be 73.1 µM. For the same molecule, the “binding and inhibitory properties (SPR/FP) in words, compared to 1907” value in assay [1] is “worse binding and inhibitory properties compared to 1907”. Moreover, in assay [2] (read-out: FP Ki), the inhibition constant Ki stood at 190 µM.

On to `CC(=O)N[C@@H](CC(N)=O)C(=O)N[C@@H](CC(C)C)C(=O)N[C@]1(C)CCCCCCC=CCCC[C@@](C)(C(=O)N[C@@H](CCC(=O)O)C(=O)N[C@@H](CC(C)C)C(=O)N[C@@H](CC(N)=O)C(N)=O)NC(=O)[C@H](CC(C)C)NC(=O)[C@H](CC(C)C)NC(=O)[C@H](CCCNC(=N)N)NC(=O)[C@H](CC(=O)O)NC(=O)[C@H](CC(C)C)NC(=O)[C@H](C)NC1=O` [Peptide 2009, Ac-NLR8ALDRLLS5ELN-NH2] (Ac-NL[R8]ALDRLL[S5]ELN-NH2; staple 3-10), for which, in assay [1] (read-out: SPR KD), the Kd turned out to be 6.96 µM. For the same molecule, in assay [2] (read-out: FP Ki), the Ki was determined as 26.7 µM.

Consider `CC(=O)N[C@@H](CC(N)=O)C(=O)N[C@@H](CC(C)C)C(=O)N[C@]1(C)CCCCCCC=CCCC[C@@](C)(C(=O)N[C@@H](CCC(=O)O)C(=O)N[C@@H](CC(C)C)C(=O)N[C@@H](CC(N)=O)C(N)=O)NC(=O)[C@H](CC(C)C)NC(=O)[C@H](CC(C)C)NC(=O)[C@H](C)NC(=O)[C@H](CC(=O)O)NC(=O)[C@H](CC(C)C)NC(=O)[C@H](C)NC1=O` [Peptide 2010, Ac-NLR8ALDALLS5ELN-NH2] (Ac-NL[R8]ALDALL[S5]ELN-NH2; staple 3-10), for which, in assay [1] (SPR KD), the Kd is 12.6 µM. The molecule further yielded a Ki in assay [2] of 68.5 µM.

On to `CC(=O)N[C@@H](CC(N)=O)C(=O)N[C@@H](CC(C)C)C(=O)N[C@@H](CO)C(=O)N[C@@H](CCC(=O)O)C(=O)N[C@@H](CC(C)C)C(=O)N[C@@H](CC(=O)O)C(=O)N[C@@H](CCCNC(=N)N)C(=O)N[C@@]1(C)CCCC=CCCC[C@@](C)(C(=O)N[C@@H](CC(N)=O)C(N)=O)NC(=O)[C@H](CCC(=O)O)NC(=O)[C@H](CC(C)C)NC(=O)[C@H](CC(C)C)NC1=O` [Peptide 2015] (Ac-NLSELDR[S5]LLE[S5]N-NH2; staple 8-12), for which, in assay [1], the “binding and inhibitory properties (SPR/FP) in words, compared to 1907” value is recorded as “did not show much activity compared to 1907”. The same molecule yielded a Kd in assay [1] (SPR KD) of 47.5 µM. The molecule further yielded a Ki in assay [2] of 114 µM.

`CC(=O)N[C@@H](CC(N)=O)C(=O)N[C@]1(C)CCCCCCC=CCCC[C@@](C)(C(=O)N[C@@H](CC(C)C)C(=O)N[C@@H](CCC(=O)O)C(=O)N[C@@H](CC(C)C)C(=O)N[C@@H](CC(N)=O)C(N)=O)NC(=O)[C@H](CC(C)C)NC(=O)[C@H](CCCNC(=N)N)NC(=O)[C@H](CC(=O)O)NC(=O)[C@H](CC(C)C)NC(=O)[C@H](CCC(=O)O)NC(=O)[C@H](CO)NC1=O` [Peptide 2017, Ac-NR8SELDRLS5LELN-NH2] (Ac-N[R8]SELDRL[S5]LELN-NH2; staple 2-9): in assay [1] (read-out: SPR KD), the Kd stood at 20.3 µM. In addition, in assay [1], the “binding and inhibitory properties (SPR/FP) in words, compared to 1907” value is reported as “limited activity compared to 1907”. For the same molecule, in assay [2] (read-out: FP Ki), the Ki was 80.6 µM.
